Like-named read-outs stand apart in the source and are kept apart here.

Common to all, as to type: in vivo
Assay [1] deals with Meloidogyne incognita. In words: Root-knot disease index of cucumber. Conditions: for root-knot index of plants, Avg. value: average of three replicates; for root-knot index of plants, R1: average value of replicate 1; for root-knot index of plants, R3: average value of replicate 3.
Assay [2] relates to cucumber. In words: Cucumber plant height at early stage. Conditions: for plant height at early stage, Avg. value: average of three replicates; for plant height at early stage, R1: average value of replicate 1; for plant height at early stage, R3: average value of replicate 3; for Growth effect: plant height compared with CK0.
Assay [3] has as its system Meloidogyne incognita. Description: Population density of J2 of root knot nematodes in soil, cucumber greenhouse. Conditions: for Population decline rate / Relative population reduction rate: J2 in soil; for Population decline rate: before administration vs end of test; for Relative population reduction rate: compared with the blank control; for population density of second instar larvae in soil, Before administration / population density of second instar larvae in soil, End of test: cucumber greenhouse soil.

For assay [4], the system named is Rice blast. The settings on record: 27 d After first administration; for Relative control: panicle blast.
The subject of assay [5] is Rice blast. Conditions: for Avg. control effect: leaf blast.
Where [6] appears, read: root-knot index compared with CK0.
[7] abbreviates: 14 d After first administration.
The mark [8] stands for this setting: before the first administration.

Turning to `CN1CSC(=S)N(C)C1` [Dazomet, dazomet], in assay [1], the “root-knot index of plants, Avg. value” stood at 26.44ab; the “root-knot index of plants, R1” value is given as 27.33; the “root-knot index of plants, R3” value is on record as 26.33. Besides, the “Control effect on root-knot index” value in assay [1] (setting [6]) amounted to 26.77%. In assay [2], the “plant height at early stage, Avg. value” is reported as 100.6a cm; the “plant height at early stage, R1” value is reported as 98.5 cm; the “plant height at early stage, R3” value worked out at 103.5 cm; the Growth effect was −0.4%. In assay [3], the Population decline rate is listed as −119.21%; the “Relative population reduction rate” value is recorded as −116.47%; the “population density of second instar larvae in soil, Before administration” value is reported as 429 strip/100 mL soil; the “population density of second instar larvae in soil, End of test” value stood at 940 strip/100 mL soil.
Consider `Cc1cccc2sc3nncn3c12` [CK3, Tricyclazole], for which, in assay [4], the “Avg. panicle blast disease index” value is 0.65 and the Relative control is given as 74.7A %. In assay [5] (7 d After first administration), the “Avg. leaf blast disease index” value is 2.04 and the Avg. control effect is given as 48.2A %. Also, in assay [5] (setting [7]), the “Avg. leaf blast disease index” value is 2.14 and the Avg. control effect was 60.3A %. Also, in assay [5] (setting [8]), the “Leaf rust before administration” value amounted to 1.59.
For `O=C(NCc1ncc(C(F)(F)F)cc1Cl)c1c(Cl)cccc1Cl` [Fluopicolide, fluopicolide], in assay [1], the “root-knot index of plants, Avg. value” amounted to 25.00a; the “root-knot index of plants, R1” value came to 28.33; the “root-knot index of plants, R3” value was 24.67. Also, the Growth effect in assay [1] (setting [6]) was found to be 30.77%. In addition, in assay [2], the “plant height at early stage, Avg. value” came out at 107.6bc cm; the “plant height at early stage, R1” value is 109.4 cm; the “plant height at early stage, R3” value worked out at 109.3 cm; the Growth effect was 6.5%. Moreover, in assay [3], the Population decline rate was 73.31%; the “Relative population reduction rate” value was found to be 76.05%; the “population density of second instar larvae in soil, Before administration” value is 390 strip/100 mL soil; the “population density of second instar larvae in soil, End of test” value came to 104 strip/100 mL soil.
For the compound `C[C@H]1O[C@H](O[C@H]2[C@H](O)[C@@H](O)[C@@H](O)[C@H](O)[C@@H]2O)[C@@H](N)C[C@@H]1NC(=N)C(=O)O` [CK2, kasugamycin], in assay [2], the Growth effect worked out at 6.5%. In addition, in assay [3], the Population decline rate is reported as 73.31% and the “Relative population reduction rate” value is given as 76.05%. Moreover, in assay [4], the “Avg. panicle blast disease index” value was found to be 0.86 and the Relative control is reported as 66.3A %. In addition, in assay [5] (7 d After first administration), the “Avg. leaf blast disease index” value is recorded as 2.26 and the Avg. control effect came out at 40.8AB %. Further, in assay [5] (setting [7]), the “Avg. leaf blast disease index” value was determined as 2.30 and the Avg. control effect is given as 55.7A %. In addition, in assay [5] (setting [8]), the “Leaf blast disease index before first administration” value worked out at 1.61.

Source of the values: patent publication US11523614B2, “Soluble granule of Bacillus velezensis and its preparation method” (priority 2019, dated 2022).
